In patent US20230391786A1, “cGAS INHIBITORS” (Eli Lilly and Company, priority 2022, published 2023) one finds IC50 data, which are given here for 28 compounds.

Counter-ions that a name gives are not always drawn. Like-named read-outs stand apart in the source and are kept apart here. Bounds are passed on as bounds.

Experiment [1] has as its system cGAS activity in THP1 cells (IFNb as marker). Nature of the experiment: Cellular assay to measure cGAS activity (IFNb production in PMA-differentiated THP1 cells stimulated by RDG-Adenovirus-GFP). Format: cell-based, human. To be noted: PMA differentiated, RDG-Adenovirus-GFP 1000 MOI, IFNb AlphaLISA, overnight incubation, read-out: IC50 (μM), Cellular assay for Compounds 95-348. As for the experimental part:
Cellular assay to measure cGAS activity: Use THP1 cell line from ATCC to determine inhibition of cGAS activity by test compounds in human cells. Plate cells on 96-well plates at 0.2×10^6/well and differentiate with phorbol myristate acetate (PMA) at 37° C./5% CO2. After 24 hours, replace PMA containing media with media lacking PMA and further incubate overnight. Stimulate cells were then by RDG-Adenovirus-GFP (Vector Biolabs #1768) at 1000 MOI for 4 hours prior to the addition of test compounds. After overnight incubation, transfer 10 μL of the media from each well to a new plate for IFNb analysis as a marker for cGAS activity. Measure quantification of IFNb with an IFNb AlphaLISA Detection kit (Perkin Elmer AL3133F) by mixing the acceptor beads with the cell supernatant followed by the addition of the biotinylated antibody and donor beads. Measure the relative fluorescence signal produced from the interaction of the donor and acceptor beads by a PHERAStar AlphaLISA protocol and evaluate the inhibitory effect of a compound by plotting specific inhibition of IFNb production against log concentration of the test compound. Calculate IC50 values using a 4-parameter non-linear logistic equation (y=(S0+((SInf−S0)/(1+((qAC50/x)^nHill))))).
For orientation: Alpha assays give light when donor and acceptor beads are brought close together.

The target of another experiment is recombinant human cGAS (Homo sapiens (Human), UniProt Q8N884). Put plainly: In vitro inhibition assay of cGAS activity (cGAMP production, RapidFire mass spectrometry). Format: biochemical. To be noted: 10 nM recombinant human cGAS, 60 nM 75-bp dsDNA, ATP, GTP, room temperature 3 hours, read-out: IC50 (μM), In vitro inhibition assay for Compounds 95-348. Summed up: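 Full-length His6-tagged human cGAS (10 nM, E. coli-expressed) was incubated 3 h at room temperature with 60 nM 75-bp dsDNA, ATP, 50 μM GTP and compound at pH 7.5 with 5 mM MgCl2. cGAMP formation was measured by RapidFire mass spectrometry, and IC50 was taken from a 4-parameter logistic fit.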

Setting [2] is: Homo sapiens, THP-1, THP1 cells.

Chain of recombinant human cGAS (Q8N884 whole entry): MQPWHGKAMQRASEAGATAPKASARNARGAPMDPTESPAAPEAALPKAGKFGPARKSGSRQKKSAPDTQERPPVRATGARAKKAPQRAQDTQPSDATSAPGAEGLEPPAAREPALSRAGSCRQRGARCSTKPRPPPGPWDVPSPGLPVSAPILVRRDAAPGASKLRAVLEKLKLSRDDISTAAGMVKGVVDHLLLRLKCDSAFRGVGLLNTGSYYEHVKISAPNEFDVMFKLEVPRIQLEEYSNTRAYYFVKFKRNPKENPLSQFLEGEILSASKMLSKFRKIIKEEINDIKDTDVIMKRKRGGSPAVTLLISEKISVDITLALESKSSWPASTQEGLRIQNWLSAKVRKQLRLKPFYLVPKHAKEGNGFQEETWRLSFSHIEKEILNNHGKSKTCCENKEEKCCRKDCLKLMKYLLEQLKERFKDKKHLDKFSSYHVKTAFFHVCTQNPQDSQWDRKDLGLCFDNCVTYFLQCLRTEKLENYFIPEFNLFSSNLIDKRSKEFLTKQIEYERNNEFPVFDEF

With `CCC(=O)NC1CCn2c1c(-c1cn[nH]c1)c1ccc(Cl)c(Cl)c12` (centres unmarked) [Example 239, N-(5,6-Dichloro-9-(1H-pyrazol-4-yl)-2,3-dihydro-1H-pyrrolo[1,2-a]indol-1-yl)propionamide], the results for the IC50 (in experiment [1] (setting [2]); at recombinant human cGAS) were over 10 µM and 0.0613 µM, respectively.

As to `N#CCOc1cc(Cl)c(Cl)c2c1c(-c1cn[nH]c1)c1n2CCN(C(=O)CCn2cncn2)C1` [Example 292, 2-((2-(3-(1H-1,2,4-Triazol-1-yl)propanoyl)-6,7-dichloro-10-(1H-pyrazol-4-yl)-1,2,3,4-tetrahydropyrazino[1,2-a]indol-9-yl)oxy)acetonitrile], the values for the IC50 (in experiment [1] (setting [2]); on recombinant human cGAS) were 4.08 µM and 0.0365 µM, respectively.

Turning to `O=C(CC1COCCOC1)N1CCn2c(c(-c3cn[nH]c3)c3ccc(Cl)c(Cl)c32)C1` [Example 298, 1-(6,7-Dichloro-10-(1H-pyrazol-4-yl)-3,4-dihydropyrazino[1,2-a]indol-2(1H)-yl)-2-(1,4-dioxepan-6-yl)ethan-1-one], the IC50 is over 10 µM in experiment [1] (setting [2]) and 0.0234 µM on recombinant human cGAS.

As for `Clc1cc(OC2COC2)c2c(-c3cn[nH]c3)c[nH]c2c1Cl` [Example 206, 6,7-Dichloro-4-(oxetan-3-yloxy)-3-(1H-pyrazol-4-yl)-1H-indole], the IC50 is 1.28 µM in experiment [1] (setting [2]) and 0.0421 µM at recombinant human cGAS.

In the case of `O=C(Nc1cc(Cl)cc2[nH]cc(-c3cn[nH]c3)c12)C(F)F` [Example 219, N-(6-Chloro-3-(1H-pyrazol-4-yl)-1H-indol-4-yl)-2,2-difluoroacetamide], the IC50 in experiment [1] (setting [2]) stood at 0.35 µM; at recombinant human cGAS it was 0.0348 µM.

With `CC(CO)COc1cc(Cl)c(Cl)c2[nH]cc(-c3cn[nH]c3)c12` (centres unmarked) [Example 125, 3-((6,7-Dichloro-3-(1H-pyrazol-4-yl)-1H-indol-4-yl)oxy)-2-methylpropan-1-ol], the IC50 in experiment [1] (setting [2]) came out at 0.426 µM; at recombinant human cGAS it was 0.0103 µM.

For `NC(=O)Cn1cc(-n2cc(-c3cn[nH]c3)c3ccc(Cl)c(Cl)c32)nn1` [Example 213, 2-[4-[6,7-Dichloro-3-(1H-pyrazol-4-yl)indol-1-yl]triazol-1-yl]acetamide], the IC50 in experiment [1] (setting [2]) turned out to be 4.1 µM; at recombinant human cGAS, 0.0538 µM.

For the compound `O=C(CO)NC1CCn2c1c(-c1cn[nH]c1)c1ccc(Cl)c(Cl)c12` (single isomer, unassigned) [Example 345, N-(5,6-Dichloro-9-(1H-pyrazol-4-yl)-2,3-dihydro-1H-pyrrolo[1,2-a]indol-1-yl)-2-hydroxyacetamide], the IC50 in experiment [1] (THP1 cells) is 3.97 µM; at recombinant human cGAS, 0.0628 µM.

`Cn1cc(-n2cc(-c3cn[nH]c3)c3ccc(Cl)cc32)nn1` [Example 230, 6-Chloro-1-(1-methyltriazol-4-yl)-3-(1H-pyrazol-4-yl)indole]: the IC50 is 2.02 µM in experiment [1] (setting [2]) and 0.0693 µM on recombinant human cGAS.

With `CC(=O)Nc1cc(Cl)c(Cl)c2[nH]c(CO)c(-c3cn[nH]c3)c12` [Example 130, N-(6,7-Dichloro-2-(hydroxymethyl)-3-(1H-pyrazol-4-yl)-1H-indol-4-yl)acetamide], the IC50 is 0.815 µM in experiment [1] (setting [2]) and 0.0711 µM at recombinant human cGAS.

With `CN1CCOC[C@@H]1CC(=O)N1CCn2c(c(-c3cn[nH]c3)c3c(OCC#N)cc(Cl)c(Cl)c32)C1` [Example 114, (S)-2-((6,7-Dichloro-2-(2-(4-methylmorpholin-3-yl)acetyl)-10-(1H-pyrazol-4-yl)-1,2,3,4-tetrahydropyrazino[1,2-a]indol-9-yl)oxy)acetonitrile], the figures for the concentration for half-maximal inhibition (IC50) (in experiment [1] (setting [2]); at recombinant human cGAS) were 1.53 µM and 0.0244 µM, respectively.

For the compound `CC(=O)N[C@@H]1CCn2c1c(-c1cn[nH]c1)c1c(OCC#N)cc(Cl)c(Cl)c12` [Example 234, (R)—N-(5,6-Dichloro-8-(cyanomethoxy)-9-(1H-pyrazol-4-yl)-2,3-dihydro-1H-pyrrolo[1,2-a]indol-1-yl)acetamide], the figures for the IC50 (in experiment [1] (setting [2]); on recombinant human cGAS) were 1.72 µM and 0.0249 µM, respectively.

`OCCCn1cc(-n2cc(-c3cn[nH]c3)c3ccc(Cl)c(Cl)c32)nn1` [Example 139, 3-[4-[6,7-Dichloro-3-(1H-pyrazol-4-yl)indol-1-yl]triazol-1-yl]propan-1-ol]: the IC50 in experiment [1] (setting [2]) was found to be 5.13 µM; at recombinant human cGAS, 0.077 µM.

With `O=C(Cc1cnccn1)N1CCn2c(c(-c3cn[nH]c3)c3ccc(Cl)c(Cl)c32)C1` [Example 267, 1-[6,7-Dichloro-10-(1H-pyrazol-4-yl)-3,4-dihydro-1H-pyrazino[1,2-a]indol-2-yl]-2-pyrazin-2-yl-ethanone], the figures for the IC50 (in experiment [1] (setting [2]); at recombinant human cGAS) were 6.27 µM and 0.0399 µM, respectively.

Turning to `CC(C)(O)C(=O)NC1CCc2c(-c3cn[nH]c3)c3ccc(Cl)c(Cl)c3n2C1` (centres unmarked) [Example 189, N-[3,4-Dichloro-10-(1H-pyrazol-4-yl)-6,7,8,9-tetrahydropyrido[1,2-a]indol-7-yl]-2-hydroxy-2-methyl-propanamide], the IC50 in experiment [1] (setting [2]) is 1.89 µM; on recombinant human cGAS, 0.0272 µM.

In the case of `N#CCOc1cc(Cl)c(Cl)c2c1c(-c1cn[nH]c1)c1n2CCN(C(=O)CN2CCOC2=O)C1` [Example 284, 2-((6,7-Dichloro-2-(2-(2-oxooxazolidin-3-yl)acetyl)-10-(1H-pyrazol-4-yl)-1,2,3,4-tetrahydropyrazino[1,2-a]indol-9-yl)oxy)acetonitrile], the IC50 in experiment [1] (setting [2]) was 9.75 µM; on recombinant human cGAS, 0.0124 µM.

As to `CC(=S)NCc1[nH]c2c(Cl)c(Cl)ccc2c1-c1cn[nH]c1` [Example 129, N-[[6,7-Dichloro-3-(1H-pyrazol-4-yl)-1H-indol-2-yl]methyl]thioacetamide], the IC50 in experiment [1] (setting [2]) was found to be 0.895 µM; on recombinant human cGAS it was 0.0552 µM.

On to `CCN1CCn2c(c(-c3cn[nH]c3)c3c(NC(=O)C(F)F)cc(Cl)c(Cl)c32)C1=O` [Example 251, N-[6,7-Dichloro-2-ethyl-1-oxo-10-(1H-pyrazol-4-yl)-3,4-dihydropyrazino[1,2-a]indol-9-yl]-2,2-difluoro-acetamide], for which the IC50 in experiment [1] (setting [2]) amounted to 1.36 µM; on recombinant human cGAS, 0.0265 µM.

Take `O=C(CO)NC1Cc2c(-c3cn[nH]c3)c3ccc(Cl)c(Cl)c3n2C1` (single isomer, unassigned) [Example 247, N-(5,6-Dichloro-9-(1H-pyrazol-4-yl)-2,3-dihydro-1H-pyrrolo[1,2-a]indol-2-yl)-2-hydroxyacetamide]: the IC50 turned out to be 2.73 µM in experiment [1] (THP1 cells) and 0.0146 µM on recombinant human cGAS.

For `COCCC(=O)NC1CCn2c1c(-c1cn[nH]c1)c1ccc(Cl)c(Cl)c12` (centres unmarked) [Example 240, N-(5,6-Dichloro-9-(1H-pyrazol-4-yl)-2,3-dihydro-1H-pyrrolo[1,2-a]indol-1-yl)-3-methoxypropanamide], the IC50 in experiment [1] (setting [2]) is over 10 µM; on recombinant human cGAS it was 0.0642 µM.

For the compound `COCC(=O)N1CCn2c(c(-c3cn[nH]c3)c3c(OCC#N)cc(Cl)c(Cl)c32)C1` [Example 279, 2-((6,7-Dichloro-2-(2-methoxyacetyl)-10-(1H-pyrazol-4-yl)-1,2,3,4-tetrahydropyrazino[1,2-a]indol-9-yl)oxy)acetonitrile], the half-maximal inhibitory concentration (IC50) in experiment [1] (setting [2]) turned out to be 0.74 µM; on recombinant human cGAS, 0.0072 µM.

Consider `OC[C@@H]1C[C@@H]1Oc1cc(Cl)c(Cl)c2[nH]cc(-c3cn[nH]c3)c12` (racemic) [Example 137, Cis-[2-[[6,7-Dichloro-3-(1H-pyrazol-4-yl)-1H-indol-4-yl]oxy]cyclopropyl]methanol hydrochloride], for which the IC50 amounted to 1.38 µM in experiment [1] (setting [2]) and 0.0165 µM on recombinant human cGAS.

Turning to `Cn1cc(-n2c(CO)c(-c3cn[nH]c3)c3ccc(Cl)c(Cl)c32)nn1` [Example 166, [6,7-Dichloro-1-(1-methyltriazol-4-yl)-3-(1H-pyrazol-4-yl)indol-2-yl]methanol], the values for the IC50 (in experiment [1] (setting [2]); on recombinant human cGAS) were 2.83 µM and 0.0931 µM, respectively.

In the case of `O=C(CO)Nc1cc(Cl)c(Cl)c2[nH]nc(-c3cn[nH]c3)c12` [Example 336, N-(6,7-Dichloro-3-(1H-pyrazol-4-yl)-1H-indazol-4-yl)-2-hydroxyacetamide], the IC50 in experiment [1] (setting [2]) turned out to be 0.492 µM; at recombinant human cGAS it was 0.0385 µM.

For `OCC(O)Cn1cc(-n2cc(-c3cn[nH]c3)c3ccc(Cl)c(Cl)c32)nn1` (centres unmarked) [Example 140, 3-[4-[6,7-Dichloro-3-(1H-pyrazol-4-yl)indol-1-yl]triazol-1-yl]propane-1,2-diol], the figures for the IC50 (in experiment [1] (setting [2]); on recombinant human cGAS) were 7.11 µM and 0.0481 µM, respectively.

Consider `Cn1ncnc1COCC(=O)N1CCn2c(c(-c3cn[nH]c3)c3c(OCC#N)cc(Cl)c(Cl)c32)C1` [Example 181], for which the IC50 in experiment [1] (setting [2]) was over 10 µM.

As to `OCCn1cc(-n2cc(-c3cn[nH]c3)c3ccc(Cl)cc32)nn1` [Example 229], the IC50 in experiment [1] (setting [2]) stood at 2.1 µM.

Regarding `NC1CCn2c1c(-c1cn[nH]c1)c1ccc(Cl)c(Cl)c12` (centres unmarked) [Example 241, 5,6-Dichloro-9-(1H-pyrazol-4-yl)-2,3-dihydro-1H-pyrrolo[1,2-a]indol-1-amine], the IC50 in experiment [1] (setting [2]) was over 10 µM.

By IC50 is commonly meant the concentration needed to halve the response being measured.
